These results are taken from PubChem BioAssay AID1963434 (Molecular Pharmacology Branch, DTP, NCI, 2024).

Each structure is given as a SMILES string. “And” between values parts separate entries of the source, which are not always exact repeats. Identical values can stand only once.

One may read the viability, T/C as the ratio of treated to control. In general, IC50 refers to the point on the concentration scale where inhibition reaches its midpoint.

This assay deals with 755483-174-R-J1-PDC complex spheroid growth, percent test/control. As to the kind of experiment: Anticancer human tumor 755483-174-R-J1-PDC patient-derived rhabdomyosarcoma cell line growth inhibition [Asc]. The settings on record: for viability, T/C: stronger effect = lower value. How it is done: Multicellular complex tumor spheroid response to apoptosis pathway targeting inhibitors Alrizomadlin, Pelcitoclax, and Dasminapant in combination with a variety of drugs and investigational agents in selected tumor cell lines
The MDM2 inhibitor alrizomadlin, the Bcl-2/Bcl-xL inhibitor pelcitoclax, and the IAPs inhibitor dasminapant were evaluated both individually and in combination with standard of care and investigational anticancer small molecules within a complex spheroid model of solid tumors. . Complex spheroids include a stromal component modeled by human endothelial cells (HUVEC) and fibroblasts modeled by human mesenchymal stem cells (MSCs). The concentration ranges selected for each drug and investigational agent were based upon clinically achievable concentrations if the clinical Cmax of the agent was known.
Compounds. The drugs and investigational agents: alrizomadlin (APG-115; NSC831270), pelcitoclax (APG-1252; NSC835773), dasminapant (APG-1387;NSC834197), TAK-243 (NSC785004), copanlisib (NSC809693), olaparib (NSC753686), talazoparib (NSC767125), cobimetinib (NSC 768068), eltanexor (KPT-8602, NSC 794443), abemaciclib (NSC 768073), sotorasib (NSC818433), adagrasib (NSC 831453), MRTX-1133 (NSC 836407), Iadademestat (ORY1001, NSC 806812), and RMC-4630 (NSC839698), were obtained from the NCI Developmental Therapeutics Program Chemical Repository. The FDA-approved anticancer drug set is available from the Developmental Therapeutics Program at https://dtp.cancer.gov/organization/dscb/obtaining/available plates.htm. […] The stock solutions were prepared in dimethyl sulfoxide (DMSO, Sigma-Aldrich, St. Louis, MO, cat. D2650) at 800-fold the tested concentration and stored at -70 degrees C prior to their use. All drugs and investigational agents were tested over a range starting from a high concentration at or near the clinical Cmax and decreasing in half-log increments. If the clinical Cmax for an agent had not been determined, the highest concentration tested was 10 microM.
The patient-derived cancer (PDC) cell lines include five colon adenocarcinomas: 186277-243-T-J2-PDC, 616215-338-R-J1-PDC, 439559-082-T-J2-PDC, 463943-066-T-J2-PDC, and 519858-162-T-J1-PDC; three pancreatic carcinomas: 323965-272-R-J2-PDC, 521955-158-R6-J3-PDC, and 521955-158-R2-J5-PDC; two uterine sarcomas: 327498-152-R-J2-PDC and 993429-296-R-J1-PDC; two rhabdomyosarcomas: 755483-174-R-J1-PDC and 772245-204-R-J1-PDC; two soft tissue sarcomas: 126254-015-R-J1-PDC and 494315-158-R-J1-PDC; two malignant fibrous histiocytomas: 317291-083-R-J1-PDC and 596521-263-R-J1-PDC; two breast carcinomas: 171881-019-R-J1-PDC and 885512-296-R-J2-PDC; and one ovarian carcinoma: 6556581-035-R-J-PDC were obtained from the NCI PDMR, (https://pdmr.cancer.gov). The established cell lines HSSY-2 synovial sarcoma (RRID:CVCL 8719), SYO-1 synovial sarcoma (RRID:CVCL_7146), MPNST malignant peripheral neural sheath tumor were obtained from the Sloan Kettering Institute. The following established cell lines were purchased from the American Type Culture Collection (ATCC, Manassas, VA), Sor the received from the NCI repository:, PANC-1 pancreatic carcinoma (CRL-1469, RRID:CVCL_0480), OVCAR-5 ovarian carcinoma (RRID:CVCL_1628), OVCAR-8 ovarian carcinoma (RRID:CVCL_1629), , MCF-7 breast carcinoma (CRL-12584, RRID:CVCL_0031), MDA-MB-231 breast carcinoma (CRL-12532, RRID:CVCL_0062), NCI-H1876 small cell lung carcinoma (CRL-5902, RRID:CVCL_1503), NCI-H510A small cell lung carcinoma (HTB-184, RRID:CVCL_1565), NCI-H1417 (CRL-5869, RRID:CVCL_1469), and NCI-H196 small cell lung carcinoma (CRL-5823, RRID:CVCL_1509). Dr. Peter Houghton (Greehey Children's Cancer Research Institute, University of Texas Health Science Center, San Antonio, TX) provided Rh-18 rhabdomyosarcoma (RRID:CVCL_1659). Pooled donor human umbilical vein endothelial cells (HUVEC, Lonza, cat. CC-2519) and human mesenchymal stem cells (hMSC, Lonza, cat. PT-2501) were purchased from Lonza (Walkersville, MD).
Cell Culture. […]
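Further: spheroids exposed to compounds for seven days before readout.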

Regarding `C#Cc1c(F)ccc2cc(O)cc(-c3ncc4c(N5CC6CCC(C5)N6)nc(OCC56CCCN5CC(F)C6)nc4c3F)c12` (centres undefined), the viability, T/C by setting is: (compound 0.0316 µM) 97.7% and 125% and 101%; (compound 0.1 µM) 114% and 91.6% and 119%; (compound 0.316 µM) 92.6% and 113% and 90.3%; (compound 1 µM) 117% and 100% and 127%; (compound 3.16 µM) 85.7% and 76.6% and 92.3%; (compound 10 µM) 31.7% and 34.9% and 58.8%. Besides, the IC50 (curve of compound) is 6.77 µM and 6.63 µM and > 10 µM.
As to `C=C(F)C(=O)N1CCN(c2nc(OCC3CCCN3C)nc3c2CCN(c2cccc4cccc(Cl)c24)C3)CC1CC#N` (centres undefined), the viability, T/C (compound 0.0316 µM) is 95.7% and 76.6% and 114%; the viability, T/C (compound 0.1 µM) was 91% and 57% and 109%; the viability, T/C (compound 0.316 µM) is 95% and 99.3% and 78.9%; the viability, T/C (compound 1 µM) is 80.1% and 74.6% and 88.8%; the viability, T/C (compound 3.16 µM) is 21.4% and 23.7% and 19.3%; the viability, T/C (compound 10 µM) is 0.14% and 0.16% and 0.18%. For the same compound, for the setting “curve of compound”, the IC50 was 1.81 µM and 1.76 µM and 1.88 µM.
As to `C=CC(=O)N1CCN(c2nc(=O)n(-c3c(C)ccnc3C(C)C)c3nc(-c4c(O)cccc4F)c(F)cc23)C(C)C1` (centres undefined), the viability, T/C is, setting by setting: (compound 0.0316 µM) 99.7% and 81.3% and 102%; (compound 0.1 µM) 98.4% and 72.6% and 109%; (compound 0.316 µM) 115% and 63% and 100%; (compound 1 µM) 94.8% and 72.7% and 121%; (compound 3.16 µM) 117% and 78.5% and 88.8%; (compound 10 µM) 74.8% and 69.6% and 85.6%. The IC50 (curve of compound) was more than 10 µM.
`CCN1C(C(=O)NC23CCC(C(=O)O)(CC2)CC3)C(c2cccc(Cl)c2F)C2(C(=O)Nc3cc(Cl)ccc32)C12CCCCC2` (centres undefined): the viability, T/C (compound 0.00949 µM) was 92.3% and 75.3%. The IC50 reads like this: (compound alone, run of 09/27/2022) more than 3 µM; (curve of compound) more than 3 µM.
Consider `CCN1CCN(Cc2ccc(Nc3ncc(F)c(-c4cc(F)c5nc(C)n(C(C)C)c5c4)n3)nc2)CC1`, for which the viability, T/C runs as follows: (compound 0.00316 µM) 112% and 99% and 77.5%; (compound 0.01 µM) 85.6% and 83.7% and 100%; (compound 0.0316 µM) 119% and 93.6% and 74.1%; (compound 0.1 µM) 120% and 83.7% and 118%; (compound 0.316 µM) 115% and 99.3% and 99.2%; (compound 1 µM) 113% and 132% and 99%. Besides, the IC50 (curve of compound) is more than 1 µM.
For `CNC(C)C(=O)NC1CN(S(=O)(=O)c2cccc(S(=O)(=O)N3CCC4CCC(C(=O)NC(c5ccccc5)c5ccccc5)N4C(=O)C(NC(=O)C(C)NC)C3)c2)CCC2CCC(C(=O)NC(c3ccccc3)c3ccccc3)N2C1=O` (centres undefined), the viability, T/C runs as follows: (compound 0.00316 µM) 48.1% and 88.5%; (compound 0.1 µM) 37.5% [middle of 15 runs]. For the same compound, where the note is “curve of compound”, the IC50 is < 0.00316 µM and 0.023 µM.
Regarding `COc1c(OCCCN2CCOCC2)ccc2c3n(c(=NC(=O)c4cnc(N)nc4)nc12)CCN3`, the viability, T/C by setting is: (compound 0.00316 µM) 81.5% and 75.7% and 125%; (compound 0.01 µM) 68.4% and 71.7% and 105%; (compound 0.0316 µM) 48.4% and 58.9% and 88.5%; (compound 0.1 µM) 32.9% and 32.1% and 51.3%; (compound 0.316 µM) 11.3% and 12% and 19.7%; (compound 1 µM) 5.83% and 6.96% and 8.42%. For the same compound, the IC50 (curve of compound) is 0.0313 µM and 0.0462 µM and 0.104 µM.
Consider `Cc1c(S(C)(=O)=O)c(-c2cc(F)cc(N3CCN(c4ccc(NS(=O)(=O)c5ccc(NC(CCN6CCC(C(=O)OCCCP(=O)(O)O)CC6)CSc6ccccc6)c(S(=O)(=O)C(F)(F)F)c5)cc4)CC3)c2)c(-c2ccc(Cl)cc2)n1C(C)C` (centres undefined), for which the viability, T/C (compound 10 µM) is 41.7% [middle of 14 runs].
Take `Cc1nc(N2CCC3(CC2)COC(C)C3N)c(CO)nc1Sc1ccnc(N)c1Cl` (centres undefined): the viability, T/C is, setting by setting: (compound 0.00949 µM) 92.6% and 79% and 106%; (compound 0.03 µM) 82.3% and 110% and 95.9%; (compound 0.0949 µM) 82.2% and 74.3% and 36.2%; (compound 0.3 µM) 47.3% and 50.9% and 53.9%; (compound 0.949 µM) 31.6% and 34.4% and 28.9%; (compound 3 µM) 22.1% and 20.2% and 18.8%. Besides, the IC50 (curve of compound) is 0.291 µM and 0.325 µM and 0.073 µM.
With `Cn1ncnc1[C@H]1c2n[nH]c(=O)c3cc(F)cc(c23)N[C@@H]1c1ccc(F)cc1`, the viability, T/C was 88.4% and 89% and 81.2% (compound 0.000316 µM); 83.4% and 79.9% and 66.1% (compound 0.001 µM); 84.2% and 86.5% and 53.9% (compound 0.00316 µM); 74.4% and 58.5% and 52.2% (compound 0.01 µM); 50.1% and 45.9% and 31.2% (compound 0.0316 µM); 41.2% and 38.3% and 23.1% (compound 0.1 µM). The IC50 (curve of compound) is 0.0327 µM and 0.0181 µM and 0.00639 µM.
On to `NC(=O)C(=Cn1cnc(-c2cc(C(F)(F)F)cc(C(F)(F)F)c2)n1)c1cncnc1`, for which the viability, T/C was 83.4% and 72.6% and 109% (compound 0.000949 µM); 79.3% and 74.5% and 76.7% (compound 0.003 µM); 31.9% and 25.1% and 35.4% (compound 0.00949 µM); 12.6% and 12.7% and 19.2% (compound 0.03 µM); 8.9% and 7.51% and 9.5% (compound 0.0949 µM); 9.16% and 4.1% and 26.1% (compound 0.3 µM). Moreover, the IC50 (curve of compound) was 0.00611 µM and 0.00525 µM and 0.00623 µM.
With `NC1CCC(NC2CC2c2ccccc2)CC1` (centres undefined), the viability, T/C is 90.9% and 70.4% and 80.8% (compound 0.000316 µM); 80.2% and 77.2% and 82.2% (compound 0.001 µM); 77.8% and 102% and 61.7% (compound 0.00316 µM); 82.8% and 87.8% and 74.4% (compound 0.01 µM); 68.1% and 94.5% and 113% (compound 0.0316 µM); 79.2% and 83.4% and 66.6% (compound 0.1 µM). Besides, where the note is “curve of compound”, the IC50 was more than 0.1 µM.
Turning to `O=C(c1cc(Cc2n[nH]c(=O)c3ccccc23)ccc1F)N1CCN(C(=O)C2CC2)CC1`, the viability, T/C reads like this: (compound 0.0316 µM) 81.5% and 67.3% and 77.6%; (compound 0.1 µM) 57.5% and 87% and 85.7%; (compound 0.316 µM) 70.2% and 82% and 67.8%; (compound 1 µM) 41.8% and 56.8% and 65.6%; (compound 3.16 µM) 32.3% and 51.1% and 43.3%; (compound 10 µM) 30.1% and 17.6% and 22.7%. In addition, the IC50 (curve of compound) was 0.713 µM and 2.73 µM and 2.21 µM.
Consider `O=C(c1ccc(F)c(F)c1Nc1ccc(I)cc1F)N1CC(O)([C@@H]2CCCCN2)C1`, for which the viability, T/C is 109% and 82.3% and 101% (compound 0.00316 µM); 117% and 73.6% and 104% (compound 0.01 µM); 96.3% and 99.1% and 95.6% (compound 0.0316 µM); 91.4% and 70.1% and 93.1% (compound 0.1 µM); 53.5% and 61.5% and 60.8% (compound 0.316 µM); 18.9% and 14.9% and 13.3% (compound 1 µM). The IC50 (curve of compound) was 0.369 µM and 0.409 µM and 0.413 µM.
